According to patent publication US7781398B2, “Drug comprising synthetic peptide analogs for the treatment of cancer” (Dabur Pharma Ltd., priority 2002, dated 2010):
Non-standard residues stand in square brackets, D forms with d. Residues, ends and D or L forms follow the SMILES beside them. No end group written: not given here. Ac5c = NC1(C(=O)O)CCCC1; Aib = CC(C)(N)C(=O)O

What was measured:
Format in all cases: cell-based
[1] = system: intracellular cAMP in MCF7 breast cancer cells; test: cAMP levels in breast cancer cells (sandwich ELISA); settings: 30 minutes, final peptide concentration 10^−9M, Forskolin 1 micromolar
Procedure: Enzyme linked sandwich immunosorbent assay was carried out on breast cancer cells (MCF7) to study the modulation in levels of cAMP upon treatment with the peptides and their combinations. The cells were cultured in sterile 6 well plates at a density of 0.5×10^6/well in DMEM supplemented with 10% FCS, and allowed to adhere overnight.
The cells were co-incubated with Forskolin at a concentration of 1 micromolar. The cells were scraped using a cell scraper and pelleted. The cell pellet was suspended in appropriate resuspension buffer (50 mM Tris, containing EDTA, 0.2 mM phenyl methyl sulfonyl fluoride (PMSF), 1 ug/ml pepstatin and 0.5 microgram/ml leupeptin adjusted to pH 7.4). The cell extracts were transferred to microcentrifuge tubes and centrifuged for 5 minutes at 10000×g. cAMP standards ranging in concentrations from 200 units/ml to 0 units/ml were prepared immediately prior to the start of the assay. Fluorescein isothiocyanate (FITC) conjugated monoclonal antibody directed to cAMP was added to microtitre wells precoated with primary monoclonal antibody against cAMP. 50 ul of sample lysates, and cAMP standards were added in duplicates in the microtitre wells containing both the monoclonals to cAMP. The wells were incubated at room temperature for 2 hours. The microtitre wells were washed three times with appropriate wash buffer (PBS 50 mM, with Tween 0.5%) and the appropriate dilution of anti FITC horse radish peroxidase conjugate was added and incubated for 30 minutes. The microtitre wells were washed thrice with the wash buffer and subsequently with distilled water. Tetra-methylbenzidine was added to each well and incubated in dark for 30 minutes at room temperature. The absorbance was measured in each well at dual wavelength of 450/595 nm within 30 minutes of the addition of stop solution and the amount of cAMP present in the cell samples calculated.

Caspase-3 = Caspase-3 induction (DEVD-pNA colorimetric) in cancer cells; settings: each peptide 10^−8M, 6 hours
Procedure: PA-1 (Ovary), MDA.MB.453 (breast), HT29 (colon) and A549 (lung) cancer cells were cultured in 25 cm^2 tissue culture flasks at 37° C. in a humidified incubator containing 5% CO2. When cultures reached pre-confluence individual peptides of the combination and different combinations of the peptides as shown in Table 8 were added to different flasks such that the final concentration of each peptide in the flask was 10^−8M. The untreated flasks served as controls. The cells were incubated with drug for 6 hours.
After 6 hours of incubation cells were collected by trypsin treatment followed by centrifugation at 2000 r.p.m. for 10 minutes. The supernatant was gently removed and discarded and Lysis Buffer was added to the cell pellet (25 microliter of lysis buffer per 1×10^4 cells I a 15 ml conical tube) and incubated on ice for 10 minutes and centrifuged at 10,000-×g for 1 minute. 50 microliter of supernatant (cell lysate) was transferred to the wells of a 96-well plate. 2× Reaction buffer was prepared by adding 10 microliter of fresh DTT stock per 1 ml of 2× Reaction Buffer. 50 micro liter 2× Reaction Buffer was added to each well followed by addition of 5 micro liter of Caspase-3 colorimetric substrate (DEVD-pNA). The plate was incubated for 1-2 hours at 37° C. Following incubation the plate was read on a microplate reader at 405 nm-wavelength light the level of caspase enzymatic activity in the cell lys ate was directly proportional to the color reaction. The induction of caspase activity by the subcombinations was calculated as a percentage of control using the formula [(Sample OD/Control OD)−1]*100.

[2] = system: tyrosine phosphatase in MiaPaCa2 cells; test: Tyrosine phosphatase activity in pancreatic cancer cells (colorimetric); settings: 30 minutes, final peptide concentration 10^−9M
Procedure: The quantitation of tyrosine phosphatase was carried out colorimetrically by using their synthetic biotin labeled tyrosine phosphorylated peptide substrates. The enzyme reaction was quenched by the addition of a specific inhibitor, and the phosphorylated and dephosphorylated substrate is immobilized by binding to the streptavidin coated microtitre plate. The fraction of the unmetabolized substrate is determined by its anti phospho tyrosine antibody directly conjugated to peroxidase.
The cells were cultured in sterile 6 well plates at a density of 0.5×10^6/well in DMEM supplemented with 10% FCS, and allowed to adhere overnight. The medium was changed to DMEM. The cells were treated with appropriate concentrations of the peptide and their combinations shown in Table 6, for 30 minutes, such that in each case the final peptide concentration was 10^−9M.
The cells were lysed in appropriate lysis buffer (50 mM Tris, containing EDTA, 0.2 mM PMSF, 1 microgram/microliter pepstatin and 0.5 microgram/microliter leupeptin adjusted to pH 7.4). […]
The quantitation of phosphatase enzyme activity was performed with 30 microliter of specific substrates and the reaction was quenched with the addition of 100 micromolar sodium orthvanadate. […] After 3 washings, 100 microliter of the substrate POD was added to the wells, and the absorbance was read at 405 nm.

Compound	cAMP (% Of Control) [1]	Caspase-3 % INDUCTION (Caspase-3; A549)	Caspase-3 % INDUCTION (Caspase-3; HT29)	Caspase-3 % INDUCTION (Caspase-3; MDA.MB453)	Caspase-3 % INDUCTION (Caspase-3; PA-1)	% Induction of Tyrosine phosphatase [2]
C[C@@H](O)[C@H](NC(=O)[C@H]1NC(=O)[C@H]([C@@H](C)O)NC(=O)[C@H](CCCN)NC(=O)[C@@H](Cc2c[nH]c3ccccc23)NC(=O)[C@H](Cc2ccc(O)cc2)NC(=O)[C@@H](NC(=O)[C@H](N)Cc2ccccc2)CSSC1(C)C)C(N)=O [SEQ ID NO: 4, D-Phe-Cys-Tyr-D-Trp-Orn-Thr-Pen-Thr-NH2]	12.9 ± 5.0 % Of Control	28.4 ± 2.8%	18.6 ± 1.9%	18.9 ± 1.0%	34.8 ± 1.3%	15.6 ± 4.5%
CC(C)C[C@H](NC(=O)[C@@H](Cc1c[nH]c2ccccc12)NC(=O)[C@H](Cc1ccccc1)NC(=O)[C@@H](Cc1c[nH]c2ccccc12)NC(=O)[C@H](CCC(N)=O)NC(=O)[C@@H](Cc1ccccc1)NC(=O)[C@@H]1CCCN1C(=O)[C@H](CCCCN)NC(=O)[C@@H]1CCCN1C(=O)[C@H](N)CCCNC(=N)N)C(=O)NC1(C(N)=O)CCCC1 [SEQ ID NO: 3, D-Arg-Pro-Lys-Pro-D-Phe-Gln-D-Trp-Phe-D-Trp-Leu-Ac5c-NH2] (H-[dR]PKP[dF]Q[dW]F[dW]L[Ac5c]-NH2; N-terminus assumed)	13.3 ± 4.0 % Of Control	38.5 ± 3.8%	28.4 ± 2.4%	22.8 ± 3.8%	46.2 ± 2.1%	14.3 ± 3.5%
LMYPTYLK-OH [SEQ ID NO: 1, Leu-Met-Tyr-Pro-Thr-Tyr-Leu-Lys-OH]	25.2 ± 4.5 % Of Control	–	–	–	–	–
CC(C)C[C@H](NC(=O)[C@H](Cc1c[nH]cn1)NC(=O)C(C)(C)NC(=O)[C@@H](NC(=O)[C@H](C)NC(=O)[C@H](Cc1c[nH]c2ccccc12)NC(=O)[C@H](CCC(N)=O)NC(=O)[C@H](N)Cc1ccccc1)C(C)C)C(N)=O [SEQ ID NO: 2, D-Phe-Gln-Trp-Ala-Val-Aib-His-Leu-NH2] (H-[dF]QWAV[Aib]HL-NH2; N-terminus assumed)	15.4 ± 3.0 % Of Control	–	–	–	–	–
